Measured values as given in a melting point compilation (Tetko et al.; mined from patent text by program, amines drawn as free bases though some values may be those of a salt).

Compared with CCc1cccc(CC(=O)O)c1OCCCc1cn(-c2ccc(C(F)(F)F)cn2)nc1C(C)C, COc1cccc(CC(=O)O)c1OCCCc1cn(-c2ccccn2)nc1C(C)C is lower in melting point: 155 to 156 °C for the first, 102 to 104 °C for the second.

Compared with CC(=O)N(C)[C@H]1CCN(C(=O)c2ccc(-c3[nH]nc4c3C(=O)c3c(NC(=O)NN5CCOCC5)cccc3-4)s2)C1, CN(CCN1CCOCC1)c1ccc(OCC(=O)N[C@@H](CC(N)=O)C(=O)N[C@@H](Cc2ccccc2)[C@H](O)C(=O)N2CCC[C@H]2C(=O)NC(C)(C)C)cc1 is lower in melting point: over 300 °C for the first, 85 to 95 °C for the second.

First: O=S(=O)(NCCCN1CCC(Oc2ccc(F)c(F)c2)CC1)c1ccc(-c2ccccn2)s1
Second: COc1cc(N)ccc1C(=O)NC1(C)CCN(CCCOc2ccc(F)cc2)CC1
The melting point of the first is higher: 128 to 129 °C for the first, 75.5 °C for the second.

First: CCON(C(=O)c1cn(C)nc1C(F)F)C(C)Cc1c(Cl)cc(Cl)cc1Cl (configuration not stated)
Second: O=C(O)c1cc2cc(F)c(F)cc2nc1Cl
The melting point of the first is lower: 111 to 114 °C for the first, 232 °C for the second.

Compared with CON(C)Cc1nc2c(N)nc3cc(OCc4ccccc4)ccc3c2n1CC1CCOCC1, CN(C)CCC1CCc2cc(OCc3ccc(O)cc3)ccc2C1 (configuration not stated) is lower in melting point: 159 to 161 °C for the first, 132 to 135 °C for the second.

Compared with CCSc1cccc(OC(F)(F)F)c1S(=O)(=O)NC(C)(C)C, CC(C)(C)OC(=O)NCC1CN(c2cccc(Cl)n2)C1 is higher in melting point: 77 °C for the first, 124 to 126 °C for the second.

Compared with COc1ccc(S(=O)(=O)Nc2ccccc2N)cc1, COc1ccc(-c2cccc3c2OC(COS(=O)(=O)c2ccc(C)cc2)C3)cc1 (configuration not stated) is lower in melting point: 141 to 142 °C for the first, 116 to 117 °C for the second.

Compared with O=C(O)c1ccc(-c2ccc(Cl)cc2)cn1, COC(=O)c1ccc(-c2nc3ccccc3o2)cc1 is lower in melting point: over 260 °C for the first, 190 to 191 °C for the second.

First: CC(C(=O)O)c1ccc2oc3ncccc3c(=O)c2c1 (configuration not stated)
Second: CC(C(=O)O)c1ccc2cc(OCc3csc(-c4ccccc4)n3)ccc2c1 (configuration not stated)
The melting point of the first is higher: 194 to 195 °C for the first, 163 to 164 °C for the second.

First: CC(C)Oc1c(Br)c(Br)n(Cc2ccccc2)c1C(=O)Nc1nnn[nH]1
Second: O=C(Nc1ccc(CN2C(=O)CNC2=O)cc1)c1cc(=O)c2ccccc2o1
The melting point of the first is lower: 199 to 205 °C for the first, 258 to 261 °C for the second.

First: Nc1ncnc2c1ncn2CC/C=C/P(=O)(O)O
Second: CC(=O)On1cnc2c(Br)csc2c1=O
The melting point of the first is higher: 263 to 266 °C for the first, 159 to 162 °C for the second.

Compared with CC(C)(C)c1ccc2cc3cc(C(C)(C)C)ccc3cc2c1, CC(C)(C)c1cc(OCc2cccc(-c3nnn[nH]3)c2)cc(C(C)(C)C)c1O is lower in melting point: 249 to 253 °C for the first, 163 to 164 °C for the second.

Compared with CCC(=C(c1ccccc1)c1ccc(OCC2CO2)cc1)C1CCCC1 (configuration not stated), CC(C)(C)c1ccc(CCC(CC2CCCCC2)OC(=O)Oc2ccc(C(=O)O)cc2)cc1NC(=O)CC1c2ccccc2Oc2ccccc21 (configuration not stated) is higher in melting point: 79 to 82 °C for the first, 139 to 141 °C for the second.

First: CCN(CC)C(=O)c1sc(Cl)nc1C(F)(F)F
Second: Cc1nc(NC(=O)OCC[Si](C)(C)C)cs1
The melting point of the first is lower: 40 to 41 °C for the first, 101 to 103 °C for the second.

First: O=C(Cn1cnc(-c2ccc(OCc3ccccc3)cc2)n1)c1ccc(F)cc1F
Second: CCN(CC)Cc1cnc2c(C)c(NC(=O)c3ccc(-c4ccc(F)cc4)cc3)ccc2c1
The melting point of the first is lower: 142 to 143 °C for the first, 155 to 156 °C for the second.

First: CC1(COCCCCCCOc2ccc(C(=O)O)cc2)COC1
Second: C=Cc1ccc(C(=O)Oc2ccc(C(=O)O)cc2)cc1C12CC3CC(CC(C3)C1)C2
The melting point of the first is lower: 58.5 °C for the first, 86 to 87 °C for the second.

First: CC(=O)Nc1ccc(OC(=O)c2ccc(COC(=O)OC(C)O[N+](=O)[O-])cc2)cc1 (configuration not stated)
Second: CCOC(=O)CCc1ccc(N2CCN(c3ccc(C(=N)NC(=O)OCC)cc3)C2=O)cc1
The melting point of the first is lower: 149 to 152 °C for the first, over 335 °C for the second.

Compared with FC(F)(F)c1ccc(-c2cc3ncnc(Nc4ccc5[nH]ccc5c4)c3s2)cc1, O=c1ccn(-c2cccc(C(F)(F)F)c2)nc1-c1ccnn1-c1ccc(Cl)cc1 is lower in melting point: 181 to 194 °C for the first, 166 to 167 °C for the second.

Compared with COc1cc(OCCCCN2CCCN(CCCCOc3cc(OC)c(OC)c(OC)c3)CC2)cc(OC)c1OC, COc1ccccc1OCC1SCCN1C(=S)CC(=O)c1cc(OC)c(OC)c(OC)c1 (configuration not stated) is lower in melting point: 124 to 126 °C for the first, 110 to 112 °C for the second.

First: Cc1nnc2ncc(-c3ccccc3)cn12
Second: N#Cc1ccc2[nH]nc(-c3ccccc3)c2c1
The melting point of the first is higher: 199 to 200 °C for the first, 150 to 151 °C for the second.

Compared with COC(=O)CNc1cc(O)c(C(C)=O)c(OC)c1, COc1cc2ncnc(Nc3cccc(O)c3)c2cc1OC is higher in melting point: 114 to 115 °C for the first, 256 to 257 °C for the second.

Compared with Clc1ccc2nc(CN3CCN(c4ncccn4)CC3)cn2c1, CC(C)(C)Oc1ccc(C(=O)N[C@H]2CC[C@H](CCN3CCN(c4nccc5c4OCC5)CC3)CC2)cc1 is higher in melting point: 114 to 115 °C for the first, 168 °C for the second.

Compared with OCC(CO)OCc1ccccc1, CC(C)[C@@H]1N(C(=O)OCc2ccccc2)CO[C@]1(O)C(F)(F)F is higher in melting point: 38 to 39 °C for the first, 73 to 74 °C for the second.

First: COc1ccc(-c2ccccc2)c2ccc(C)nc12
Second: CC1(C)N=C(c2ccccc2)C(c2ccc(N)cc2)O1 (configuration not stated)
The melting point of the first is lower: 133 to 134 °C for the first, 162 to 163 °C for the second.

Compared with OCc1cc2ccc3c4ccccc4ccc3c2o1, N#CC(O)c1cccc2c(-c3ccccc3)c([N+](=O)[O-])oc12 (configuration not stated) is higher in melting point: 125 to 126 °C for the first, 137 to 139 °C for the second.

First: CC(CSc1cc(C(C)(C)C)c(O)c(C(C)(C)C)c1)N(O)C(N)=O (configuration not stated)
Second: CC(C)(C)c1cc(Cn2nc(-c3ccccc3)oc2=O)cc(C(C)(C)C)c1O
The melting point of the first is lower: 65 to 66 °C for the first, 164 °C for the second.

First: COc1ccc(C2=NN(C3CCN(S(=O)(=O)c4cccc5c(N(C)C)cccc45)CC3)C(=O)[C@@H]3CC=CC[C@H]23)cc1OC
Second: COc1ccc(C2=NN(C3CCCCCC3)C(=O)[C@H]3CC=CC[C@@H]23)cc1OCC1CC1 (relative stereo)
The melting point of the first is higher: 198 to 200 °C for the first, 102 to 103 °C for the second.

First: O=C(O)c1ccccc1-n1nc(-c2ccccc2O)nc1-c1ccccc1O
Second: Cc1nc(-n2ccc(-c3ccccc3)cc2=O)sc1C(=O)NCc1ccccc1
The melting point of the first is lower: 132 to 138 °C for the first, 235 to 237 °C for the second.

Sc1nc2cc3ccccc3cc2[nH]1 and COc1ccc2cc3c(=O)c(C#N)c[nH]c3cc2c1 cannot be ordered by melting point: 303 to 305 °C for the first, over 265 °C for the second.

First: C=CCOc1cc(C=O)ccc1O
Second: Oc1nccc2ccncc12
The melting point of the first is lower: 66 to 67 °C for the first, 260 to 262 °C for the second.

First: CC(=O)Oc1cccc2c1C(=O)c1c(OC(C)=O)cc(-c3nc4ccccc4n3C)cc1C2=O
Second: COc1cccc(-c2ccc3c(c2)C(=O)N(Cc2cccnc2)C3=O)c1
The melting point of the first is higher: 279 to 280 °C for the first, 115 to 117 °C for the second.

First: CC1=CC(c2cccs2)(C(C)C(=O)O)Nc2ccccc21 (configuration not stated)
Second: CNC1Cc2ccccc2C1Nc1ccccc1 (configuration not stated)
The melting point of the first is higher: 228 to 229 °C for the first, 121 to 122 °C for the second.

First: CCOC(=O)c1csc(Nc2nc(C(C)(C)C)c(O)c(C(C)(C)C)n2)n1
Second: CCCn1nc2c(N)nc3ccccc3c2c1CC(C)(C)NC(=O)NC(C)C
The melting point of the first is higher: 204 to 206 °C for the first, 190 to 191 °C for the second.

First: COc1cc2c(cc1O)CCN(Cc1cccc(C#N)c1)C2
Second: COC(=O)c1cc(C#N)ccc1Cl
The melting point of the first is higher: 113 to 155 °C for the first, 100 to 103 °C for the second.

Compared with CCOC(=O)C1(C2c3[nH]c4ccc(Cl)cc4c3CCN2C(=O)c2ccno2)CCC1 (configuration not stated), Cc1ccc2[nH]c3c(C(=O)O)cccc3c2c1Cl is higher in melting point: 166 to 167 °C for the first, 305 °C for the second.

First: Cc1cc(C)c(S(=O)(=O)N(C)c2ccccc2CSc2nccn2-c2ccccn2)c(C)c1
Second: Cn1cncc1C(O)(c1ccc2c(c1)c(-c1cccc(Cl)c1)cc(=O)n2C)c1nccn1C (configuration not stated)
The melting point of the first is higher: 131 to 133 °C for the first, 130 °C for the second.

First: COc1ccc(NC(=N)c2ccccc2)cc1NC(=O)/C=C/c1ccccc1C(F)(F)F
Second: COC1=CC(C=O)(NC(c2ccccc2)(c2ccccc2)c2ccccc2)NC=C1 (configuration not stated)
The melting point of the first is higher: 208 to 210 °C for the first, 172 °C for the second.

First: CCOC(=O)c1cccc(C#CC2(O)CN3CCC2CC3)c1 (configuration not stated)
Second: COc1cc(C(=O)N(C(C)C)C2CCCCC2)ccc1Cn1c(CO)nc2ncccc21
The melting point of the first is higher: 155 to 156 °C for the first, 117 to 119 °C for the second.

Compared with CCCCCCCCCCCCCCCCC(C(=O)OC)S(C)=O (configuration not stated), CC1CCN(CCCCC(=O)c2ccc3c(c2)Cc2cc(C(=O)CCCCN4CCC(C)CC4)ccc2-3)CC1 is higher in melting point: 56 to 57 °C for the first, 143 to 144 °C for the second.

First: CC1(C)CCCC2(C)CC(O)CCC12 (configuration not stated)
Second: CC1(C)CC(C)(C)CC2(CCC(=O)N2)C1
The melting point of the first is lower: 53 to 54 °C for the first, 158 to 160 °C for the second.

First: COc1ccc(N(c2ccc(OC)cc2)c2ccc(-c3ccc(N(c4ccc(OC)cc4)c4ccc5ccc6cccc7ccc4c5c67)cc3)cc2)cc1
Second: COc1ccc(CN(C)CCCc2ccc(NC(=O)c3cccc4c(=O)c5cc(F)ccc5sc34)cc2)cc1OC
The melting point of the first is higher: 211 to 213 °C for the first, 160 °C for the second.

First: Clc1nc(-c2cccnc2)[nH]c1Cl
Second: N#Cc1c(-c2ccc(Cl)c(Cl)c2)cc(C2CC2)[nH]c1=O
The melting point of the first is lower: 237 to 238 °C for the first, 290 to 295 °C for the second.

First: N#CCc1cccc2c1CCN=C2c1ccc([N+](=O)[O-])cc1
Second: CCOC(=O)C1=Cc2cc(-c3ccc(OCC)cc3)ccc2OCC1
The melting point of the first is higher: 138 to 139 °C for the first, 124 to 127 °C for the second.

First: C[C@H]1O[C@@H](C(Cl)(Cl)Cl)OC(=O)[C@@H]1C
Second: CCOC(=O)/C(=C/c1coc2cc(OC)ccc2c1=O)Cc1cc2c(cc1OC)OCO2
The melting point of the first is lower: 128 to 130 °C for the first, 140 to 141 °C for the second.

Compared with Cc1ccc([C@@H]2c3c(C)c(N4CCC(c5ccc(F)cc5)CC4)c(C)c(C)c3OC2(C)C)cc1, CC1=C(C(=C2SCSCS2)c2ccc(C)cc2)CN(C)O1 is lower in melting point: 141 to 144 °C for the first, 89 to 90 °C for the second.

First: CCOC(=O)C1(C(=O)OCC)CCC2(NCCc3cc(OC)c(OC)cc32)C(C2=NCCc3cc(OC)c(OC)cc32)C1 (configuration not stated)
Second: NC(=O)N[C@@H]1CN2C(=O)N(c3cc(Cl)nc(Cl)c3)C(=O)[C@@]2(Cc2ccc(OC(F)(F)F)cc2)C1
The melting point of the first is lower: 116 to 118 °C for the first, 142 °C for the second.

Compared with CCCc1nc(N)nc(O)c1I, N=C(N)c1ccc2nc(-c3ccc(-c4nc5ccc(C(=N)N)cc5[nH]4)o3)[nH]c2c1 is higher in melting point: 233 to 234 °C for the first, over 300 °C for the second.

Compared with COc1ccc(-c2cncc(OC3SCC(O)C(O)C3O)c2)cn1 (configuration not stated), CS(=O)(=O)c1c(C(=O)c2cnoc2C2CC2)ccc(F)c1F is lower in melting point: 189 °C for the first, 115 to 118 °C for the second.

For COc1cn(-c2ccc(-n3cccn3)cc2F)nc(-c2ccnn2-c2ccccc2F)c1=O, the melting point was 202 to 206 °C.
